From ChEMBL document CHEMBL1201862, “PubChem BioAssay data set” (2004)
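Method: 48-hour compound exposure of cells in 96-well plates, five concentrations, linear interpolation of endpoints. Here, GI50 denotes the concentration required for 50% inhibition of growth.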 The source made the active and inactive calls. Cut-off read from the data, not from the text of the source: active = GI50 up to about 1.1 µM and inactive = higher.

How the values were obtained:
Test in all cases: NCI anticancer screen, dose series, 48 h
SNB-78 = tested on: SNB-78
HOP-18 = tested on: HOP-18
MDA-N = tested on: MDA-N
MDA-MB-435 = tested on: MDA-MB-435
MDA-MB-231 = tested on: MDA-MB-231
RXF 631 = tested on: RXF 631
786-0 = tested on: 786-0
DMS-114 = tested on: DMS-114
XF498 = tested on: XF498

SMILES	GI50 (SNB-78)	GI50 (HOP-18)	GI50 (MDA-N)	GI50 (MDA-MB-435)	GI50 (MDA-MB-231)	GI50 (RXF 631)	GI50 (786-0)	GI50 (DMS-114)	GI50 (XF498)
COC1OC2=CCC3C(=O)NC(=O)C3C2[C@H](OCc2ccccc2)C1OCc1ccccc1 (some centres not stated)	2.03 µM (inactive)	3.48 µM (inactive)	–	–	–	–	–	–	–
CCOC(=O)NC(C(F)(F)F)(C(F)(F)F)P(=O)(OCC(C)C)OCC(C)C	–	–	6.04 µM (inactive)	15.5 µM (inactive)	15.1 µM (inactive)	–	–	–	–
CSc1nsc(-c2ccccc2)[s+]1.[O-][Cl+3]([O-])([O-])[O-]	> 100 µM (inactive)	> 100 µM (inactive)	–	–	–	> 100 µM (inactive)	> 100 µM (inactive)	–	–
C/C(=N/NC(N)=S)c1ccc2ccccc2c1	45.5 µM (inactive)	–	–	–	–	–	–	17.9 µM (inactive)	82.2 µM (inactive)
CCCCCCCSCC(O)COC(c1ccccc1)(c1ccccc1)c1ccccc1 (configuration not stated)	–	–	40.9 µM (inactive)	56.4 µM (inactive)	> 100 µM (inactive)	–	48.8 µM (inactive)	–	–
C/C(=N\Oc1cc(Cl)ncn1)c1ccccn1	–	–	> 100 µM (inactive)	47.4 µM (inactive)	19.8 µM (inactive)	–	–	–	–
CC(=O)OCc1nnn2c1CCC2	> 100 µM (inactive)	> 100 µM (inactive)	–	–	–	–	–	–	> 100 µM (inactive)
C=C(C)C(=O)OC1CCC2(C)C(CCC3C2CCC2(C)C(c4ccc(=O)oc4)CC4OC432)C1 (configuration not stated)	5.47 µM (inactive)	13.3 µM (inactive)	–	–	–	–	–	2.43 µM (inactive)	5.15 µM (inactive)
O=C1CC2(CCC(O)(c3cccs3)C(C(=O)c3cccs3)C2)C(=O)c2ccccc2N1 (configuration not stated)	–	–	> 100 µM (inactive)	> 100 µM (inactive)	> 100 µM (inactive)	–	–	–	–
COc1ccc(CN2C(=O)C(=O)N(C)C2=O)c2ccccc12	–	–	7.06 µM (inactive)	> 10 µM (inactive)	> 10 µM (inactive)	–	–	–	–
O=C1C=C(C2OC(CO)C(O)C2O)C(=O)N1 (configuration not stated)	> 100 µM (inactive)	> 100 µM (inactive)	–	–	–	–	–	54.8 µM (inactive)	< 0.01 µM (active)
CCOc1ccc(NC(=O)C(=O)CC(=O)c2sc(NNC(C)=O)nc2C)cc1	> 100 µM (inactive)	–	–	–	–	> 100 µM (inactive)	–	–	> 100 µM (inactive)
CN(Cc1cnc2nc(N)nc(N)c2n1)c1ccc(C(=O)NC(CCC(=O)O)C(=O)O)cc1C(F)(F)F (configuration not stated)	–	–	–	< 0.01 µM (active)	> 23.1 µM (inactive)	–	–	–	–
COc1ccc2c(c1)C(=O)/C(=C/c1ccccc1)C2	–	–	39 µM (inactive)	63.2 µM (inactive)	–	–	–	–	–
CN(C(=O)C1(C(=O)C=[N+]=[N-])CC1)c1ccccc1	–	–	> 100 µM (inactive)	> 100 µM (inactive)	> 100 µM (inactive)	–	> 100 µM (inactive)	–	–
COc1ccc(-c2cc3[nH]nc(N)c3c(=O)o2)cc1	> 100 µM (inactive)	> 100 µM (inactive)	–	–	–	–	–	72.4 µM (inactive)	> 100 µM (inactive)
COc1ccc(/C(C#N)=C2/O/C(=N/N)C(c3ccc(OC)c(OC)c3)C2=O)cc1OC (configuration not stated)	> 100 µM (inactive)	–	–	–	–	–	> 100 µM (inactive)	–	> 100 µM (inactive)
Cc1occc1/C(S)=N\c1ccc(Cl)c(C(=O)OCC(F)(F)F)c1	–	–	29 µM (inactive)	20.3 µM (inactive)	18 µM (inactive)	–	18.7 µM (inactive)	–	–
C=CCCCCCCCCC(=O)O [UNDECYLENIC ACID]	106 µM (inactive)	125 µM (inactive)	–	–	–	–	–	135 µM (inactive)	17.1 µM (inactive)
